The values that follow come from the supplement of paper PMC10307832.

Assay in all cases: relative viability (nuclei count vs DMSO), 5 days (fraction); higher = more cells survive
Compound in the test “Shikonin + Decitabine”: CC(C)=CC[C@@H](O)C1=CC(=O)c2c(O)ccc(O)c2C1=O [Shikonin] + Nc1ncn([C@H]2C[C@H](O)[C@@H](CO)O2)c(=O)n1 [Decitabine] (partner 2 µM)
In a few lines:
(§1)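 Lung cancer cell lines in 1536-well plates got either a single drug or a fixed anchor-drug dose together with five library-drug doses (not always all listed) in √10 steps, by pin tool, on the day after seeding. Nuclei were counted after 5 days, and relative viability is the treated-to-vehicle ratio of nuclei counts. Values are medians of duplicate plates.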

Compound in the test “Shikonin + Luminespib”: CC(C)=CC[C@@H](O)C1=CC(=O)c2c(O)ccc(O)c2C1=O [Shikonin] + CCNC(=O)c1noc(-c2cc(C(C)C)c(O)cc2O)c1-c1ccc(CN2CCOCC2)cc1 [Luminespib] (partner 0.01 µM)
In a few lines:
as §1

Compound in the test “Shikonin + Phenformin”: CC(C)=CC[C@@H](O)C1=CC(=O)c2c(O)ccc(O)c2C1=O [Shikonin] + N=C(N)NC(=N)NCCc1ccccc1 [Phenformin] (partner 250 µM)
In a few lines:
as §1

Compound in test [1]: CC(C)N(CCCNC(=O)Nc1ccc(C(C)(C)C)cc1)C[C@H]1O[C@@H](n2ccc3c(N)ncnc32)[C@H](O)[C@@H]1O + C[C@]1(O)C[C@@H](c2nc(-c3ccc4ccc(-c5ccccc5)nc4c3)c3c(N)nccn32)C1 [Linsitinib] (partner 1 µM)
In a few lines:
as §1

For NCI-H441, the relative viability in the test with Shikonin + Decitabine (first compound 0.01 µM) amounted to 0.249; with Shikonin + Decitabine (first compound 0.1 µM), 0.26; in the test with Shikonin + Decitabine (first compound 0.3162 µM), 0.258; with Shikonin + Decitabine (first compound 1 µM), 0.206; in the test with Shikonin + Luminespib (first compound 0.01 µM), 0.349; with Shikonin + Luminespib (first compound 0.1 µM) it was 0.339. Further, the relative viability came out at 0.371 in the test with Shikonin + Luminespib (first compound 0.3162 µM); 0.323 in the test with Shikonin + Luminespib (first compound 1 µM); 0.941 in the test with Shikonin + Phenformin (first compound 0.01 µM); 1.03 with Shikonin + Phenformin (first compound 0.1 µM); 0.761 with Shikonin + Phenformin (first compound 0.3162 µM); 0.815 with Shikonin + Phenformin (first compound 1 µM). For the same cell line, the relative viability is 0.565 in test [1] (first compound 0.08 µM); 0.557 in test [1] (first compound 0.253 µM); 0.602 in test [1] (first compound 0.8 µM); 0.611 in test [1] (first compound 2.53 µM); 0.636 in test [1] (first compound 8 µM).
In the case of NCI-H1395, the relative viability in the test with Shikonin + Decitabine (first compound 0.01 µM) stood at 0.719; with Shikonin + Decitabine (first compound 0.1 µM), 0.796; with Shikonin + Decitabine (first compound 0.3162 µM), 0.692; with Shikonin + Decitabine (first compound 1 µM) it was 0.71; in the test with Shikonin + Luminespib (first compound 0.01 µM), 0.672; with Shikonin + Luminespib (first compound 0.1 µM) it was 0.793. Also, the relative viability with Shikonin + Luminespib (first compound 0.3162 µM) came out at 0.744; in the test with Shikonin + Luminespib (first compound 1 µM) it was 0.655; in the test with Shikonin + Phenformin (first compound 0.01 µM), 0.42; in the test with Shikonin + Phenformin (first compound 0.1 µM) it was 0.484; with Shikonin + Phenformin (first compound 0.3162 µM), 0.419; with Shikonin + Phenformin (first compound 1 µM), 0.459. Further, the relative viability turned out to be 1.09 in test [1] (first compound 0.08 µM), 0.881 in test [1] (first compound 0.253 µM), 1.07 in test [1] (first compound 2.53 µM) and 0.987 in test [1] (first compound 8 µM).
For the cell line NCI-H358, the relative viability with Shikonin + Decitabine (first compound 0.01 µM) is 0.178; with Shikonin + Decitabine (first compound 0.1 µM), 0.23; in the test with Shikonin + Decitabine (first compound 0.3162 µM), 0.218; with Shikonin + Decitabine (first compound 1 µM), 0.19; in the test with Shikonin + Luminespib (first compound 0.01 µM), 0.467; with Shikonin + Luminespib (first compound 0.1 µM), 0.369. For the same cell line, the relative viability in the test with Shikonin + Luminespib (first compound 0.3162 µM) was determined as 0.246; in the test with Shikonin + Luminespib (first compound 1 µM) it was 0.334; in the test with Shikonin + Phenformin (first compound 0.01 µM) it was 0.289; in the test with Shikonin + Phenformin (first compound 0.1 µM), 0.387; with Shikonin + Phenformin (first compound 0.3162 µM), 0.329; with Shikonin + Phenformin (first compound 1 µM) it was 0.37. In addition, the relative viability in test [1] (first compound 0.08 µM) was 0.775; in test [1] (first compound 0.253 µM), 0.814; in test [1] (first compound 0.8 µM), 0.786; in test [1] (first compound 2.53 µM), 0.823; in test [1] (first compound 8 µM), 0.668.
For the cell line PC-3 [JPC-3], the relative viability with Shikonin + Decitabine (first compound 0.01 µM) came to 0.765; in the test with Shikonin + Decitabine (first compound 0.1 µM), 0.896; in the test with Shikonin + Decitabine (first compound 0.3162 µM), 0.843; in the test with Shikonin + Decitabine (first compound 1 µM), 0.82; with Shikonin + Luminespib (first compound 0.01 µM) it was 0.727; with Shikonin + Luminespib (first compound 0.1 µM), 0.677. Further, the relative viability with Shikonin + Luminespib (first compound 0.3162 µM) is 0.665; in the test with Shikonin + Luminespib (first compound 1 µM), 0.622; with Shikonin + Phenformin (first compound 0.01 µM) it was 0.488; with Shikonin + Phenformin (first compound 0.1 µM), 0.231; with Shikonin + Phenformin (first compound 0.3162 µM), 0.477; in the test with Shikonin + Phenformin (first compound 1 µM), 0.428. The relative viability in test [1] (first compound 0.08 µM) is 0.97; in test [1] (first compound 0.253 µM) it was 0.94; in test [1] (first compound 0.8 µM), 0.876; in test [1] (first compound 2.53 µM), 0.919; in test [1] (first compound 8 µM), 0.897.
